{
  "source": "patent US4568765A",
  "about": "“Isoprenylamine derivatives” (priority 1981, dated 1986)",
  "key": {"tumor cells KN7 -8": {"system": "tumor cells KN7 -8", "assay": "Anti-tumor activity (survivors on the 30th day)", "assay_type": "in vivo", "conditions": "survivors/group of 6 Balb/c male mice, 5×10^5 KN7 -8 cells i.p., 30 mg/kg i.p. 24 hours before and on 2nd and 5th day after inoculation", "experimental": "Groups, each consisting of 6 Balb/c male mice weighing about 20 g, were intraperitoneally administered 5×10^5 of tumor cells KN7 -8. Each test compound suspended in a surfactant solution was intraperitoneally administered (each time at a rate of 30 mg/kg) to the mice 24 hours before inoculation of the tumor cells and on the second day and the fifth day after the inoculation, totalling 3 times, and the anti-tumor activity was evaluated in terms of number of survivors on the 30th day after the inoculation."}, "[1]": {"assay": "Toxicity (50% lethal dose, intravenous)", "assay_type": "in vivo", "conditions": "ddY male mice 20-25 g", "text": "Using ddY male mice weighing 20-25 g, 50% lethal dose of each test compound when intravenously administered was obtained, the results of which are shown in Table 6."}, "vaccinia virus [2]": {"system": "vaccinia virus", "assay_type": "cell-based", "conditions": "vero cells; 50 n molar concentration"}, "vaccinia virus [3]": {"system": "vaccinia virus", "assay_type": "in vivo", "conditions": "ICR female mice; 50 mg/kg intraperitoneally 24 hours before i.v. virus inoculation; lesions counted on 8th day; against surfactant solution group"}, "[4]": {"system": "human interferon; normal diploid cells (fibroblast)", "assay": "Human interferon inducing activity (in vitro), 3H-uridine-uptake inhibition", "assay_type": "cell-based", "conditions": "25 n molar suspension, radioisotope microassay", "experimental": "Interferon was induced according to the method of Edward A. Havell et al. by treating normal diploid cells (fibroblast) originated from human being with each test compound (in the form of ethanol solution diluted with PBS (-), 25 n molar suspension). Using the radioisotope microassay method of H. Ishitsuka et al., interferon was measured in terms of 3H-uridine-uptakeinhibition rate."}},
  "note": "Like-named read-outs stand apart in the source and are kept apart here.",
  "data": [
    {"smiles": "CC(C)=CCCC(C)=CCCC(C)=CCCC(C)=CCCC(C)=CCCC(C)=CCCC(C)=CCCC(C)=CCCC(C)=CCCC(C)=CCNCCNCCN", "note": "[drawing 22]", "values": [
      {"measurement": "Anti-tumor activity (Survivor on the 30th day)", "setting": "tumor cells KN7 -8; 30 mg/kg", "value": "2/6"}
    ]},
    {"smiles": "CC(C)=CCCC(C)=CCCC(C)=CCCC(C)=CCCC(C)=CCCC(C)=CCCC(C)=CCCC(C)=CCCC(C)=CCNCCNCCNCCN", "note": "[drawing 21]", "values": [
      {"measurement": "Anti-tumor activity (Survivor on the 30th day)", "setting": "tumor cells KN7 -8", "value": "3/6"}
    ]},
    {"smiles": "CC(C)=CCCC(C)=CCCC(C)=CCCC(C)=CCCC(C)=CCCC(C)=CCCC(C)=CCCC(C)=CCCC(C)=CCCC(C)=CCNCCNCCNCCN", "note": "[drawing 28]", "values": [
      {"measurement": "LD50", "setting": "[1]", "value": 21, "unit": "mg/kg"}
    ]},
    {"smiles": "CC(C)=CCCC(C)=CCCC(C)=CCCC(C)=CCCC(C)=CCCC(C)=CCCC(C)=CCCC(C)=CCCC(C)=CCCC(C)=CCNCCNCCN", "note": "[drawing 20]", "values": [
      {"measurement": "Anti-tumor activity (Survivor on the 30th day)", "setting": "tumor cells KN7 -8; 30 mg/kg", "value": "1/6"}
    ]},
    {"smiles": "CCNCCN(CC)CCN(CC)CCN(CC)CC=C(C)CCCC(C)CCCC(C)CCCC(C)C", "note": "(stereo not shown)", "values": [
      {"measurement": "LD50", "setting": "[1]; mouse, in vivo, iv, read-out: LD50", "value": 34, "unit": "mg/kg"}
    ]},
    {"smiles": "CC(C)=CCCC(C)=CCCC(C)=CCCC(C)=CCCC(C)=CCCC(C)=CCCC(C)=CCCC(C)=CCCC(C)=CCCC(C)=CCNCCNCCNCCN", "note": "[drawing 25]", "values": [
      {"measurement": "Anti-vaccinia virus activity (in vitro) (Plaque inhibition rate %)", "setting": "vaccinia virus [2]", "value": 44.5, "unit": "%"}
    ]},
    {"smiles": "CC(C)=CCCC(C)=CCCC(C)=CCCC(C)=CCCC(C)=CCCC(C)=CCCC(C)=CCCC(C)=CCCC(C)=CCCC(C)=CCNCCNCCNCCN", "note": "[drawing 16]", "values": [
      {"measurement": "Prevention from vaccinia infection (Pock inhibition rate %)", "setting": "vaccinia virus [3]", "value": 87.9, "unit": "%"}
    ]},
    {"smiles": "CC(C)=CCCC(C)=CCCC(C)=CCCC(C)=CCCC(C)=CCCC(C)=CCCC(C)=CCCC(C)=CCCC(C)=CCNCCNCCNCCN", "note": "[drawing 18]", "values": [
      {"measurement": "Prevention from vaccinia infection (Pock inhibition rate %)", "setting": "vaccinia virus [3]", "value": 76.1, "unit": "%"}
    ]},
    {"smiles": "CC(C)=CCCC(C)=CCCC(C)=CCCC(C)=CCCC(C)=CCCC(C)=CCCC(C)=CCCC(C)=CCCC(C)=CCCC(C)=CCNCCNCCNCCN", "note": "[drawing 27]", "values": [
      {"measurement": "LD50", "setting": "[1]", "value": 57, "unit": "mg/kg"}
    ]},
    {"smiles": "CC(C)=CCCC(C)=CCCC(C)=CCCC(C)=CCCC(C)=CCCC(C)=CCCC(C)=CCCC(C)=CCCC(C)=CCCC(C)=CCNCCNCCN", "note": "[drawing 24]", "values": [
      {"measurement": "Human interferon (in vitro) 3H-uridine-uptake inhibition rate %", "setting": "[4]", "value": 15.1, "unit": "%"}
    ]},
    {"smiles": "CC(C)=CCCC(C)=CCCC(C)=CCCC(C)=CCCC(C)=CCCC(C)=CCCC(C)=CCCC(C)=CCCC(C)=CCCC(C)=CCNCCNCCN", "note": "[drawing 17]", "values": [
      {"measurement": "Prevention from vaccinia infection (Pock inhibition rate %)", "setting": "vaccinia virus [3]", "value": 51.9, "unit": "%"}
    ]},
    {"smiles": "CC(C)=CCCC(C)=CCCC(C)=CCCC(C)=CCCC(C)=CCCC(C)=CCCC(C)=CCCC(C)=CCCC(C)=CCCC(C)=CCN(CCN(CCN(CCNCc1ccccc1)Cc1ccccc1)Cc1ccccc1)Cc1ccccc1", "values": [
      {"measurement": "Human interferon (in vitro) 3H-uridine-uptake inhibition rate %", "setting": "[4]", "value": 23.2, "unit": "%"}
    ]},
    {"smiles": "CC(C)=CCCC(C)=CCCC(C)=CCCC(C)=CCCC(C)=CCCC(C)=CCCC(C)=CCCC(C)=CCCC(C)=CCCC(C)=CCNCCNCCNCCN", "note": "[drawing 19]", "values": [
      {"measurement": "Anti-tumor activity (Survivor on the 30th day)", "setting": "tumor cells KN7 -8", "value": "5/6"}
    ]}
  ]
}
